Experimental data as given in ChEMBL document CHEMBL1201862, “PubChem BioAssay data set” (2004).
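A five-concentration, 48-hour dose response in 96-well plates underlies each endpoint, interpolated linearly between surrounding concentrations. Here, GI50 denotes the concentration required for 50% inhibition of growth.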 Activity calls are given as the source filed them. No stated cut-off is given here; in the data, active = GI50 up to about 1.1 µM and inactive = higher.

Legend:
Assay in all cases: DTP human tumour cell line panel, 48 h
ACHN = system: ACHN
CCRF-CEM = system: CCRF-CEM
DU-145 = system: DU-145
EKVX = system: EKVX
HCT-116 = system: HCT-116
HOP-92 = system: HOP-92
K562 = system: K562
M14 = system: M14
MDA-MB-435 = system: MDA-MB-435
MDA-N = system: MDA-N
NCI-H23 = system: NCI-H23
NCI-H460 = system: NCI-H460
OVCAR-3 = system: OVCAR-3
SK-MEL-5 = system: SK-MEL-5
SN12C = system: SN12C
SW-620 = system: SW-620
UO-31 = system: UO-31
NCI-H522 = system: NCI-H522
SNB-75 = system: SNB-75

Measured: GI50

COc1ccc(N2C(=O)CC(c3c[nH]c4ccccc34)C2=O)cc1 (configuration not stated)
inactive: ACHN > 100 µM | CCRF-CEM > 100 µM | DU-145 > 100 µM | EKVX > 100 µM | HCT-116 > 100 µM | HOP-92 > 100 µM | K562 > 100 µM | M14 > 100 µM | MDA-MB-435 > 100 µM | MDA-N > 100 µM | NCI-H23 > 100 µM | NCI-H460 > 100 µM | OVCAR-3 > 100 µM | SK-MEL-5 > 100 µM | SN12C > 100 µM | SW-620 > 100 µM | UO-31 > 100 µM

O=C(O)c1cc(/N=N/c2ccc([As](=O)(O)O)cc2)ccc1O
inactive: ACHN > 100 µM | CCRF-CEM > 100 µM | DU-145 > 100 µM | EKVX > 100 µM | HCT-116 > 100 µM | K562 > 100 µM | M14 > 100 µM | MDA-MB-435 > 100 µM | MDA-N > 100 µM | NCI-H23 > 100 µM | NCI-H460 > 100 µM | NCI-H522 > 100 µM | OVCAR-3 > 100 µM | SK-MEL-5 > 100 µM | SN12C > 100 µM | SNB-75 > 100 µM | SW-620 > 100 µM | UO-31 > 100 µM

CN1CC[C@]23c4c5ccc(O)c4O[C@H]2C(O)CC[C@@]3(O)[C@H]1C5 (some centres not stated)
inactive: ACHN > 100 µM | DU-145 > 100 µM | EKVX > 100 µM | HCT-116 > 100 µM | HOP-92 > 100 µM | M14 > 100 µM | MDA-MB-435 > 100 µM | MDA-N > 100 µM | NCI-H23 > 100 µM | NCI-H522 > 100 µM | OVCAR-3 > 100 µM | SK-MEL-5 > 100 µM | SN12C > 100 µM | SW-620 > 100 µM | UO-31 > 100 µM

COc1ccc(-n2c(CCC(=O)O)nc3c2C(=O)c2ccccc2C3=O)cc1
inactive: ACHN > 100 µM | CCRF-CEM 88.9 µM | DU-145 > 100 µM | EKVX > 100 µM | HCT-116 80.2 µM | K562 71.3 µM | M14 > 100 µM | MDA-MB-435 96.4 µM | MDA-N > 100 µM | NCI-H23 > 100 µM | NCI-H460 > 100 µM | NCI-H522 34.3 µM | OVCAR-3 98.2 µM | SK-MEL-5 > 100 µM | SN12C > 100 µM | SNB-75 > 100 µM | SW-620 > 100 µM | UO-31 > 100 µM

N[C@H]1CCN(c2c(F)cc3c(=O)c(C(=O)O)cn4c3c2Oc2cc3c(ccc5ccccc53)cc2-4)C1
inactive: ACHN 2.32 µM | DU-145 4.05 µM | EKVX 3.65 µM | HCT-116 2.87 µM | HOP-92 2.59 µM | K562 2.82 µM | M14 4.68 µM | MDA-MB-435 3.88 µM | MDA-N 3.03 µM | NCI-H23 4.83 µM | NCI-H460 1.94 µM | NCI-H522 4 µM | OVCAR-3 4.48 µM | SK-MEL-5 1.87 µM | SN12C 3.23 µM | SW-620 3.27 µM | UO-31 4.79 µM

O=C1CCN/C(=N\C(=O)C(F)(F)F)N1CCc1c[nH]c2ccccc12
inactive: ACHN > 100 µM | CCRF-CEM > 100 µM | DU-145 > 100 µM | EKVX > 100 µM | HCT-116 > 100 µM | HOP-92 > 100 µM | K562 > 100 µM | M14 > 100 µM | MDA-MB-435 > 100 µM | MDA-N > 100 µM | NCI-H23 > 100 µM | NCI-H460 > 100 µM | NCI-H522 > 100 µM | OVCAR-3 > 100 µM | SK-MEL-5 > 100 µM | SN12C > 100 µM | SW-620 > 100 µM | UO-31 > 100 µM

CC1C(=O)CC[C@@]2(C)C(=O)CCCC12O (some centres not stated)
inactive: ACHN > 100 µM | DU-145 > 100 µM | EKVX > 100 µM | HCT-116 > 100 µM | HOP-92 > 100 µM | K562 > 100 µM | M14 > 100 µM | MDA-MB-435 > 100 µM | MDA-N > 100 µM | NCI-H23 > 100 µM | NCI-H460 > 100 µM | NCI-H522 > 100 µM | OVCAR-3 > 100 µM | SK-MEL-5 > 100 µM | SN12C > 100 µM | SW-620 > 100 µM | UO-31 > 100 µM

C[N+]12C=CC=C1C(N1CCCC1)c1scc(-c3ccc(F)cc3)c12 (configuration not stated)
inactive: CCRF-CEM 1.89 µM | DU-145 81.7 µM | EKVX 92.3 µM | HCT-116 46.2 µM | K562 5.74 µM | M14 69.8 µM | MDA-MB-435 30.6 µM | MDA-N 17.1 µM | NCI-H522 17.6 µM | OVCAR-3 14.6 µM | SK-MEL-5 13.5 µM | SN12C 11.1 µM | SNB-75 20.4 µM | SW-620 68.2 µM | UO-31 > 100 µM

O=[N+]([O-])c1ccc(/C=C/c2cc(-c3ccccc3)nc3ccc4ccccc4c23)cc1
inactive: ACHN > 100 µM | CCRF-CEM > 100 µM | DU-145 > 100 µM | EKVX > 100 µM | HCT-116 > 100 µM | K562 > 100 µM | M14 > 100 µM | MDA-MB-435 > 100 µM | MDA-N > 100 µM | NCI-H23 > 100 µM | NCI-H460 > 100 µM | OVCAR-3 > 100 µM | SK-MEL-5 > 100 µM | SN12C > 100 µM | SNB-75 16.9 µM | SW-620 > 100 µM | UO-31 > 100 µM

CC1=C(C#N)C2C(=C(N)Oc3ccccc32)C(N)=N1 (configuration not stated)
inactive: ACHN 27.7 µM | CCRF-CEM 30.1 µM | DU-145 21.1 µM | EKVX 25.4 µM | HCT-116 24.4 µM | K562 29.7 µM | M14 20.7 µM | MDA-MB-435 27.7 µM | MDA-N 21.8 µM | NCI-H23 > 10 µM | NCI-H522 15.4 µM | OVCAR-3 44.8 µM | SK-MEL-5 23.7 µM | SN12C 23.7 µM | SNB-75 18.7 µM | SW-620 32.9 µM | UO-31 17.4 µM

COc1cc2c(cc1OCCCN1C(=O)c3cccc4cccc(c34)C1=O)N=C[C@@H]1CCCN1C2=O
inactive: ACHN 25.7 µM | CCRF-CEM 5.65 µM | DU-145 46.1 µM | EKVX > 100 µM | HCT-116 36.1 µM | HOP-92 22.2 µM | K562 22.5 µM | M14 36.2 µM | MDA-MB-435 40.1 µM | MDA-N 37.2 µM | NCI-H23 34 µM | NCI-H460 22.3 µM | NCI-H522 14.3 µM | OVCAR-3 32.8 µM | SK-MEL-5 20.4 µM | SN12C 48.5 µM | SW-620 22.6 µM | UO-31 22.5 µM
